What all share (assay type): cell-based
The subject of series [1] is Gram-positive and Gram-negative bacteria. Nature of the series: MIC over all tested bacterial strains (range, geometric mean). As to conditions: for GM, geometric mean of the MIC values: all tested strains, 256 μM used where no activity at 128 μM. The protocol: (§1) Minimum inhibitory concentrations (MICs) were determined as previously described. The bacteria used to determine the MIC were first cultured in Mueller-Hilton broth (MHB) (AoBoX, Beijing, China) overnight at 37 °C and transferred into a fresh and sterile MHB and grown to an OD600 of 0.4. The bacteria then adjusted to a cell density of 5×10^5 CFU mL^−1 in MHB. Peptides were serially diluted in 0.01% acetic acid and 0.2% bovine serum albumin (BSA) (Sigma-Aldrich, Shanghai, China) in a volume of 50 μL per well to achieve final concentration ranging from 1 to 128 μM in sterile 96-well plates. 50 μL of prepared bacterial suspension was added to each well. The mixtures were incubated at 37 °C for 18–24 h. The MICs were calculated as the lowest concentration of the peptide that prevented visible turbidity. The tests were performed in triplicate using three replicates for each experiment.
It is calculated as HC10/GM.

The test system of series [2] is human erythrocytes. Nature of the series: Hemolytic activity. As to conditions: for HC10, concentration that induced 10% hemolysis of human red blood cells: probit regression in SPSS, unit not given (peptides tested at 0.5–256 µM). The protocol:
Hemolytic activities of the peptides were determined according to the method described previously. Fresh heparinized human whole blood from healthy donor (Yang Yang, Harbin, China) was centrifuged at 1000 g for 5 min at 4 °C. The obtained erythrocytes were washed three times and resuspended in PBS. Then, 50 μL of erythrocyte solution was incubated with 50 μL peptides at different concentrations at 37 °C for 1 h. Erythrocytes in either PBS or 0.1% Triton X-100 (Sigma-Aldrich, Shanghai, China) were used as negative and positive controls, respectively. After centrifugation at 1000 g for 5 min at 4 °C, the supernatant was transferred into a new 96-well plate and the extent of hemolysis was monitored using a multimode microplate reader (Infinite M200 Pro, Tecan, Switzerland) at 576 nm. The percentage of hemolysis was calculated according to the following formula:hemolysis (%) = [(A-A0)/(At-A0)]×100(2) where A is the absorbance of the peptide sample, A0 and At represent 0% and 100% hemolysis determined in 10 mM PBS and 0.1% Triton X-100, respectively. Results were expressed as average values from three independent experiments and each experiment was performed in triplicate.
For statistical evaluation, data were analyzed using the Statistical Product and Service Solutions software (SPSS Inc., Chicago, IL, USA) by one-way ANOVA and the values were presented as mean ± standard error (SE). HC10 values were calculated by using probit regression in SPSS 19.

Series [3] has as its system E. coli ATCC25922. The protocol: as §1
For series [4], the system named is E. coli UB 1005. The protocol:
as §1

In series [5] the test system is S. aureus ATCC29213. The protocol: as §1
The subject of series [6] is P. aeruginosa ATCC27853. The protocol:
as §1

Series [7] deals with S. typhimurium ATCC14028. The protocol:
as §1

The subject of series [8] is S. epidermidis ATCC12228. The protocol:
as §1

Series [9] has as its system S. faecalis ATCC29212. The protocol:
as §1

Series [10] concerns S. pullorum C7913. The protocol: as §1
Series [11] has as its system S. typhimurium C7731. The protocol: as §1
Series [12] deals with S. aureus ATCC 29213. As to conditions: ATCC 29213, 2 h. The protocol: (§2) Minimum inhibitory concentrations (MICs) were determined as previously described. […] The bacteria then adjusted to a cell density of 5×10^5 CFU mL^−1 in MHB. […] The mixtures were incubated at 37 °C for 18–24 h. The MICs were calculated as the lowest concentration of the peptide that prevented visible turbidity. The tests were performed in triplicate using three replicates for each experiment. Serum stability was determined according to the method previously described. Human serum was added in the peptide solution with the volume ratio of 1:1 in which the final concentration of 50% v/v of serum was yielded. Serum-peptide mixtures with the final concentration of 25% and 12.5% v/v serum were also prepared. Subsequently, the mixture was incubated at 37 °C for 2h. The antimicrobial activities of serum-preincubated peptides were determined according the MIC assay described above.

Series [13] deals with E. coli ATCC 25922. As to conditions: ATCC 25922, 2 h. The protocol: as §2

Converted amounts (≈) assume the structure as drawn. Residues, ends and D or L forms follow the SMILES beside them.

The results in this text go back to publication PMC7073140, “Hybridization with Insect Cecropin A (1–8) Improve the Stability and Selectivity of Naturally Occurring Peptides” (International Journal of Molecular Sciences, 2020).

For the compound `CC[C@H](C)[C@H](NC(=O)[C@H](CCCCN)NC(=O)[C@H](CCCNC(=N)N)NC(=O)[C@H](CC(C)C)NC(=O)[C@H](Cc1ccccc1)NC(=O)[C@H](CCCNC(=N)N)NC(=O)CNC(=O)[C@H](Cc1ccccc1)NC(=O)[C@@H](N)CCCNC(=N)N)C(=O)N[C@@H](CCCNC(=N)N)C(=O)N[C@@H](CCCNC(=N)N)C(=O)N[C@@H](Cc1ccccc1)C(=O)N[C@@H](CCCNC(=N)N)C(=O)N1CCC[C@H]1C(=O)N[C@@H](CCCCN)C(N)=O` [FO] (H-RFGRFLRKIRRFRPK-NH2), the “GM, geometric mean of the MIC values” in series [1] turned out to be 25.40 µM. In [2] (37 °C, 1 h), the “HC10, concentration that induced 10% hemolysis of human red blood cells” value was determined as 2.78. The MIC (in general, the least concentration at which growth counts as inhibited) is recorded as 32 µM (≈ 65 µg/mL) in series [3]; 16 µM (≈ 32.5 µg/mL) in series [4]; 64 µM (≈ 130 µg/mL) in series [5]; 32 µM (≈ 65 µg/mL) in series [6]; 32 µM (≈ 65 µg/mL) in series [7]; 16 µM (≈ 32.5 µg/mL) in series [8]. Also, the figures for the minimal inhibitory concentration (MIC) in [9], in [10] and in [11] were 16 µM (≈ 32.5 µg/mL), 16 µM (≈ 32.5 µg/mL) and 32 µM (≈ 65 µg/mL), respectively.

Regarding `CC[C@H](C)[C@H](NC(=O)[C@H](CCCCN)NC(=O)[C@H](CCCCN)NC(=O)[C@H](Cc1ccccc1)NC(=O)[C@H](CC(C)C)NC(=O)[C@H](CCCCN)NC(=O)[C@H](Cc1c[nH]c2ccccc12)NC(=O)[C@@H](N)CCCCN)C(=O)N[C@@H](CCCNC(=N)N)C(=O)N[C@@H](Cc1ccccc1)C(=O)NCC(=O)N[C@@H](CCCNC(=N)N)C(=O)N[C@@H](Cc1ccccc1)C(=O)N[C@@H](CC(C)C)C(=O)N[C@@H](CCCNC(=N)N)C(=O)N[C@@H](CCCCN)C(=O)N[C@H](C(=O)N[C@@H](CCCNC(=N)N)C(=O)N[C@@H](CCCNC(=N)N)C(=O)N[C@@H](Cc1ccccc1)C(=O)N[C@@H](CCCNC(=N)N)C(=O)N1CCC[C@H]1C(=O)N[C@@H](CCCCN)C(N)=O)[C@@H](C)CC` [CA-FO] (H-KWKLFKKIRFGRFLRKIRRFRPK-NH2), the “MICs range against all tested bacterial strains” value in series [1] (all nine tested Gram-negative and Gram-positive strains) is 2 to 8 µM. Also, the “GM, geometric mean of the MIC values” in [1] was 3.43 µM. Further, the hemolytic activity in series [2] (256 μM peptide, 37 °C, 1 h, absorbance 576 nm, average of three independent experiments) is given as 13.83%. In [2] (37 °C, 1 h), the “HC10, concentration that induced 10% hemolysis of human red blood cells” value worked out at 143.34. Besides, the “fold decrease of hemolysis compared to CA” value in [2] (at 256 μM) is recorded as “approximately 5 fold”. The MIC worked out at 2 µM (≈ 6.21 µg/mL) in series [3]; 2 µM (≈ 6.21 µg/mL) in series [4]; 2 µM (≈ 6.21 µg/mL) in [5]; 4 µM (≈ 12.4 µg/mL) in series [6]; 4 µM (≈ 12.4 µg/mL) in [7]; 4 µM (≈ 12.4 µg/mL) in series [8]. The MIC is 4 µM (≈ 12.4 µg/mL) in [9], 8 µM (≈ 24.8 µg/mL) in series [10] and 4 µM (≈ 12.4 µg/mL) in series [11]. The “MIC after incubating with human serum” value in [12] and in series [13] was 4 µM each time.

In the case of `CC[C@H](C)[C@H](NC(=O)[C@H](CCCCN)NC(=O)[C@H](CCCCN)NC(=O)[C@H](Cc1ccccc1)NC(=O)[C@H](CC(C)C)NC(=O)[C@H](CCCCN)NC(=O)[C@H](Cc1c[nH]c2ccccc12)NC(=O)[C@@H](N)CCCCN)C(=O)N[C@@H](Cc1c[nH]c2ccccc12)C(=O)N[C@@H](Cc1c[nH]c2ccccc12)C(=O)N1CCC[C@H]1C(=O)N[C@@H](Cc1ccccc1)C(=O)N[C@@H](CC(C)C)C(=O)N[C@@H](CCCNC(=N)N)C(=O)N[C@@H](CCCNC(=N)N)C(N)=O` [CA-TP] (H-KWKLFKKIWWPFLRR-NH2), the “GM, geometric mean of the MIC values” in series [1] is 2.72 µM. In addition, the “HC10, concentration that induced 10% hemolysis of human red blood cells” value in series [2] (37 °C, 1 h) amounted to 49.66. Besides, the MIC in series [3] was 2 µM (≈ 4.26 µg/mL); in [4], 4 µM (≈ 8.53 µg/mL); in series [5] it was 2 µM (≈ 4.26 µg/mL); in series [6] it was 4 µM (≈ 8.53 µg/mL); in series [7], 4 µM (≈ 8.53 µg/mL); in [8], 2 µM (≈ 4.26 µg/mL). The minimum inhibitory concentration (MIC) in series [9] is on record as 2 µM (≈ 4.26 µg/mL); in [10], 4 µM (≈ 8.53 µg/mL); in series [11], 2 µM (≈ 4.26 µg/mL). Besides, the “MIC after incubating with human serum” value in series [12] and in series [13] was 4 µM in each case.

`CC(C)C[C@H](NC(=O)[C@H](Cc1ccccc1)NC(=O)[C@@H]1CCCN1C(=O)[C@H](Cc1c[nH]c2ccccc12)NC(=O)[C@@H](N)Cc1c[nH]c2ccccc12)C(=O)N[C@@H](CCCNC(=N)N)C(=O)N[C@@H](CCCNC(=N)N)C(N)=O` [TP] (H-WWPFLRR-NH2): in [1], the “GM, geometric mean of the MIC values” was found to be 74.66 µM. For the same compound, in series [2] (37 °C, 1 h), the “HC10, concentration that induced 10% hemolysis of human red blood cells” value turned out to be 25.06. Moreover, the minimum inhibitory concentration (MIC) was found to be 128 µM (≈ 136 µg/mL) in series [3]; 128 µM (≈ 136 µg/mL) in series [4]; 64 µM (≈ 67.8 µg/mL) in series [5]; 64 µM (≈ 67.8 µg/mL) in series [6]; 32 µM (≈ 33.9 µg/mL) in [7]; 32 µM (≈ 33.9 µg/mL) in [8]. Also, the results for the minimal inhibitory concentration (MIC) in [9], in series [10] and in series [11] were above 128 µM, 64 µM (≈ 67.8 µg/mL) and 64 µM (≈ 67.8 µg/mL), respectively.

On to `CC[C@H](C)[C@H](NC(=O)[C@H](CCCCN)NC(=O)[C@H](CCCCN)NC(=O)[C@H](Cc1ccccc1)NC(=O)[C@H](CC(C)C)NC(=O)[C@H](CCCCN)NC(=O)[C@H](Cc1c[nH]c2ccccc12)NC(=O)[C@@H](N)CCCCN)C(N)=O` [CA] (H-KWKLFKKI-NH2), for which the “GM, geometric mean of the MIC values” in [1] worked out at 203.19 µM. For the same compound, in series [2] (37 °C, 1 h), the “HC10, concentration that induced 10% hemolysis of human red blood cells” value was found to be 15.54. In addition, the minimum inhibitory concentration (MIC) is recorded as 64 µM (≈ 69.7 µg/mL) in series [3]; above 128 µM in series [4]; 128 µM (≈ 139 µg/mL) in [5]; above 128 µM in [6]; above 128 µM in series [7]; above 128 µM in series [8]. Besides, the MIC in series [9], in series [10] and in series [11] was above 128 µM throughout.
